Source: patent US20260209247A1, “Substituted Tricyclic Compounds” (Lupin Limited, priority 2019, published 2026)

What was measured:
[1] = target: T1, protein-protein interaction between hSOS1 and hKRASG12C (Homo sapiens, UniProt Q07889); assay: KRAS-SOS1 interaction assay (HTRF); type: binding; conditions: GST-hSOS1 564-1049aa, HIS-hKRASG12C, read-out: KRAS-SOS1 Interaction inhibition IC50
T1 construct: GST-hSOS1, 564-1049aa expressed and purified in-house
T1 sequence (Q07889 564-1049): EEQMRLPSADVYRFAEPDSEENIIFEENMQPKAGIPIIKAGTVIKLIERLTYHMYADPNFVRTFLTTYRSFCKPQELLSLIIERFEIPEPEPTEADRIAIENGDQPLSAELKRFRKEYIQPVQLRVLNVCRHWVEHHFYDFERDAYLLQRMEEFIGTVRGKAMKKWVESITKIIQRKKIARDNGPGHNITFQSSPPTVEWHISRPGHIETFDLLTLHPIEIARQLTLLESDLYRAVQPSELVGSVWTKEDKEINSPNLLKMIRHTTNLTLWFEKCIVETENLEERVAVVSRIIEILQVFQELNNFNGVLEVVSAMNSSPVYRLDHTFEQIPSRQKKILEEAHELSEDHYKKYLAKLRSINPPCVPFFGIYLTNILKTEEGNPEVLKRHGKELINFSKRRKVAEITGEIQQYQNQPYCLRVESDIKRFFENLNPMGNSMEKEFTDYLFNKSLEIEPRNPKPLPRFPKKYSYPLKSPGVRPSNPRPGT
In short: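 GST-hSOS1 (564-1049aa) at 10-50 nM working solution pre-incubated with compounds 10 min at 20° C in HEPES pH 7.4 buffer with EDTA, DTT, BSA and Igepal. HIS-hKRASG12C (100-300 nM working solution) added for 30-60 min, then anti-GST-d2/anti-HIS-Tb detection; percent inhibition from the 665/620 nm ratio.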

[2] = system: pERK after EGF stimulation in DLD1 cells; assay: ERK phosphorylation assay (alphascreen pERK); type: cell-based; conditions: Homo sapiens, DLD-1, 2 h compound, 200 ng/ml hEGF for 5 minutes, read-out: ERK phosphorylation inhibition IC50
In short: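 DLD1 cells pretreated with test compounds for 2 h, then stimulated with 200 ng/ml hEGF for 5 min. Lysates assayed by AlphaScreen SureFire for ERK1/2 p-T202/Y204, read after 2 h at 25–28 °C. % inhibition relative to the stimulated-minus-unstimulated vehicle window.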

[3] = target: T2, nucleotide exchange on hKRASG12C mediated by hSOS1 (Homo sapiens, UniProt Q07889); assay: Guanine nucleotide exchange assay (GNEA, HTRF); type: biochemical; conditions: HIS-hSOS1 564-1049aa mediated GTP loading onto GST-hKRASG12C 1-169aa, read-out: Guanine nucleotide exchange inhibition IC50
T2 construct: HIS-hSOS1, 564-1049aa mediated GTP loading onto GST-hKRASG12C; His (N); made in house
T2 sequence (Q07889 564-1049): T1 sequence (Q07889 564-1049)
In short: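 Compounds were pre-incubated 10 min at 20 °C with HIS-hSOS1 (564-1049aa) and EDA-GTP-DY-647P1 (working solution 10-50 nM and 200 nM) in pH 7.4 HEPES with NaCl, MgCl2, DTT, BSA and Igepal. GST-hKRASG12C (1-169aa, 25-125 nM working solution) plus anti-GST-Tb was added for 30-60 min at 20 °C. Percent inhibition came from the HTRF 665/620 nm ratio.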

| Compound | IC50 [1] [nM] | IC50 [2] [nM] | IC50 [3] [nM] |
| --- | --- | --- | --- |
| COCCN1C(=O)C(C)(C)c2cc3nc(C)nc(N[C@H](C)c4cccc(C(F)(F)C(C)(C)O)c4F)c3cc21 [Compound 63, (R)-4-((1-(3-(1,1-difluoro-2-hydroxy-2-methylpropyl)-2-fluorophenyl)ethyl)amino)-6-(2-methoxyethyl)-2,8,8-trimethyl-6,8-dihydro-7H-pyrrolo[2,3-g]quinazolin-7-one] | 1 to 10 | 1 to 200 | 1 to 30 |
| CCN1C(=O)C(C)(C)c2cc3nc(C)nc(N[C@H](C)c4cccc(C(F)(F)C(C)(C)O)c4F)c3cc21 [Compound 64, (R)-4-((1-(3-(1,1-difluoro-2-hydroxy-2-methylpropyl)-2-fluorophenyl)ethyl)amino)-6-ethyl-2,8,8-trimethyl-6,8-dihydro-7H-pyrrolo[2,3-g]quinazolin-7-one] | 1 to 10 | 1 to 200 | 1 to 30 |
| Cc1nc(N[C@H](C)c2cccc(C(F)(F)CO)c2F)c2cc3c(cc2n1)N(C)C(=O)C31CC1 [Compound 66, (R)-4′-((1-(3-(1,1-difluoro-2-hydroxyethyl)-2-fluorophenyl)ethyl)amino)-2′,8′-dimethylspiro [cyclopropane-1,6′-pyrrolo[3,2-g]quinazolin]-7′(8′H)-one] | 1 to 10 | 1 to 200 | 1 to 30 |
| Cc1nc(N[C@H](C)c2cc(N)cc(C(F)(F)F)c2)c2cc3c(cc2n1)C(C)(C)C(=O)N3C [Compound 70, (R)-4-((1-(3-amino-5-(trifluoromethyl)phenyl)ethyl)amino)-2,6,8,8-tetramethyl-6H-pyrrolo[2,3-g]quinazolin-7(8H)-one] | 1 to 10 | 1 to 200 | 31 to 130 |
| Cc1nc(N[C@H](C)c2cccc(C(F)(F)C(C)(C)O)c2F)c2cc3c(cc2n1)C(C)(C)CN3C [Compound 75, (R)-1,1-difluoro-1-(2-fluoro-3-(1-((2,6,8,8-tetramethyl-7,8-dihydro-6H-pyrrolo[2,3-g]quinazolin-4-yl)amino)ethyl)phenyl)-2-methylpropan-2-ol] | 11 to 25 | 1 to 200 | 31 to 130 |
| Cc1nc(N[C@H](C)c2cccc(C(F)(F)CO)c2F)c2cc3c(cc2n1)N(C)C(=O)C3(C)C [Compound 80, (R)-4-((1-(3-(1,1-difluoro-2-hydroxyethyl)-2-fluorophenyl)ethyl)amino)-2,6,6,8-tetramethyl-6,8-dihydro-7H-pyrrolo[3,2-g]quinazolin-7-one] | 1 to 10 | 1 to 200 | 1 to 30 |
| CCc1nc(N[C@H](C)c2cccc(C(F)(F)C(C)(C)O)c2F)c2cc3c(cc2n1)N(C)C(=O)C3(C)C [Compound 86, (R)-4-((1-(3-(1,1-difluoro-2-hydroxy-2-methylpropyl)-2-fluorophenyl)ethyl)amino)-2-ethyl-6,6,8-trimethyl-6,8-dihydro-7H-pyrrolo[3,2-g]quinazolin-7-one] | 1 to 10 | 1 to 200 | 31 to 130 |
| CCN1C(=O)C(C)(C)c2cc3c(N[C@H](C)c4cccc(C(F)(F)CO)c4F)nc(C)nc3cc21 [Compound 88, (R)-4-((1-(3-(1,1-difluoro-2-hydroxyethyl)-2-fluorophenyl)ethyl)amino)-8-ethyl-2,6,6-trimethyl-6,8-dihydro-7H-pyrrolo[3,2-g]quinazolin-7-one] | 1 to 10 | 1 to 200 | 1 to 30 |
| Cc1nc(N[C@H](C)c2cccc(C(F)(F)C(C)(C)O)c2F)c2cc3c(c(C)c2n1)N(C)C(=O)C3(C)C [Compound 90, (R)-4-((1-(3-(1,1-difluoro-2-hydroxy-2-methylpropyl)-2-fluorophenyl)ethyl)amino)-2,6,6,8,9-pentamethyl-6,8-dihydro-7H-pyrrolo[3,2-g]quinazolin-7-one] | 1 to 10 | 1 to 200 | 31 to 130 |
| CCC1(CC)C(=O)N(C)c2cc3nc(C)nc(N[C@H](C)c4cccc(C(F)(F)C(C)(C)O)c4F)c3cc21 [Compound 91, (R)-4-((1-(3-(1,1-difluoro-2-hydroxy-2-methylpropyl)-2-fluorophenyl)ethyl)amino)-6,6-diethyl-2,8-dimethyl-6,8-dihydro-7H-pyrrolo[3,2-g]quinazolin-7-one] | 11 to 25 | 1 to 200 | 31 to 130 |
| Cc1nc(N[C@H](C)c2cccc(C(F)(F)C(C)(C)O)c2F)c2cc3c(cc2n1)N(C)C(=O)C3(CF)CF [Compound 92, (R)-4-((1-(3-(1,1-difluoro-2-hydroxy-2-methylpropyl)-2-fluorophenyl)ethyl)amino)-6,6-bis(fluoromethyl)-2,8-dimethyl-6,8-dihydro-7H-pyrrolo[3,2-g]quinazolin-7-one] | 1 to 10 | 201 to 500 | 31 to 130 |
| COC1(C)C(=O)N(C)c2cc3c(N[C@H](C)c4cccc(C(F)(F)C(C)(C)O)c4F)nc(C)nc3cc21 (stereo partly drawn) [Compound 101, (R&S)-4-(((R)-1-(3-(1,1-difluoro-2-hydroxy-2-methylpropyl)-2-fluorophenyl)ethyl)amino)-8-methoxy-2,6,8-trimethyl-6,8-dihydro-7H-pyrrolo[2,3-g]quinazolin-7-one] | 1 to 10 | 1 to 200 | 1 to 30 |
| CCn1c(=O)n(C)c2cc3nc(C)nc(N[C@H](C)c4cccc(C(F)(F)C(C)(C)O)c4F)c3cc21 [Compound 104, (R)-8-((1-(3-(1,1-difluoro-2-hydroxy-2-methylpropyl)-2-fluorophenyl)ethyl)amino)-1-ethyl-3,6-dimethyl-1H-imidazo[4,5-g]quinazolin-2(3H)-one] | 1 to 10 | 1 to 200 | 1 to 30 |
| Cc1nc(N[C@H](C)c2cccc(C(F)(F)C(C)(C)O)c2F)c2cc3c(cc2n1)n(C)c(=O)n3C(C)C [Compound 105, (R)-8-((1-(3-(1,1-difluoro-2-hydroxy-2-methylpropyl)-2-fluorophenyl)ethyl)amino)-1-isopropyl-3,6-dimethyl-1H-imidazo[4,5-g]quinazolin-2(3H)-one] | 1 to 10 | 1 to 200 | 1 to 30 |
| Cc1nc(N[C@H](C)c2cccc(C(F)(F)C(C)(C)O)c2F)c2cc3c(cc2n1)n(C)c(=O)n3CC(F)F [Compound 106, (R)-8-((1-(3-(1,1-difluoro-2-hydroxy-2-methylpropyl)-2-fluorophenyl)ethyl)amino)-1-(2,2-difluoroethyl)-3,6-dimethyl-1H-imidazo[4,5-g]quinazolin-2(3H)-one] | 1 to 10 | 1 to 200 | 1 to 30 |
| Cc1nc(N[C@H](C)c2cccc(C(F)(F)C(C)(C)O)c2F)c2cc3c(cc2n1)n(C)c(=O)n3C [Compound 109, (R)-8-((1-(3-(1,1-difluoro-2-hydroxy-2-methylpropyl)-2-fluorophenyl)ethyl)amino)-1,3,6-trimethyl-1,3-dihydro-2H-imidazo[4,5-g]quinazolin-2-one] | 1 to 10 | 1 to 200 | 1 to 30 |
| C[C@@H](Nc1nc(C2CC2)nc2cc3c(cc12)C(C)(C)C(=O)N3C)c1cccc(C(F)(F)C(C)(C)O)c1F [Compound 110, (R)-2-cyclopropyl-4-((1-(3-(1,1-difluoro-2-hydroxy-2-methylpropyl)-2-fluorophenyl)ethyl)amino)-6,6,8-trimethyl-6,8-dihydro-7H-pyrrolo[3,2-g]quinazolin-7-one] | 11 to 25 | 201 to 500 | 31 to 130 |
| Cc1nc(N[C@H](C)c2cccc(C(F)(F)C(C)(C)O)c2F)c2cc3c(cc2n1)C1(CCOCC1)C(=O)N3C [Compound 122, (R)-4′-((1-(3-(1,1-difluoro-2-hydroxy-2-methylpropyl)-2-fluorophenyl)ethyl)amino)-2′,6′-dimethyl-2,3,5,6-tetrahydrospiro[pyran-4,8′-pyrrolo[2,3-g]quinazolin]-7′(6′H)-one] | 1 to 10 | 1 to 200 | 1 to 30 |
| CO[C@]1(C)C(=O)N(C)c2cc3c(N[C@H](C)c4cc(N)cc(C(F)(F)F)c4)nc(C)nc3cc21 [Compound 131, (S)-4-(((R)-1-(3-amino-5-(trifluoromethyl)phenyl)ethyl)amino)-8-methoxy-2,6,8-trimethyl-6,8-dihydro-7H-pyrrolo[2,3-g]quinazolin-7-one] | 11 to 25 | 1 to 200 | 31 to 130 |
